Experimental data published in patent publication US20250228239A1, “MOLECULES HAVING PESTICIDAL UTILITY, AND INTERMEDIATES, COMPOSITIONS, AND PROCESSES, RELATED THERETO” (priority 2024, published 2025).
Where two headings read alike, the source gives them in different places.

Key:
Assay type in all cases: in vivo
[1] = system: Cabbage Looper (Trichoplusia ni, TRIPNI); assay: Bioassays on Cabbage Looper (CL), 128-well diet tray assay; conditions: Trichoplusia ni
In short: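 Diet tray, 2nd instar, 1–5 larvae/well; 50 μg/cm^2 compound surface-applied (acetone:water 90:10), dried; 8 wells/treatment; 25° C, 14:10 L:D, 5–7 d; % mortality, mean of 8 wells.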

[2] = system: Beet Armyworm (Spodoptera exigua, LAPHEG); assay: Bioassays on Beet Armyworm (BAW), 128-well diet tray assay; conditions: Spodoptera exigua
In short: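 Test molecule was dissolved in 90:10 acetone-water and applied at 50 μg/cm^2 onto artificial diet in eight wells, then dried. Second instar larvae, one to five per well, were added, and trays were kept vented at 25° C. with a 14:10 photoperiod for five to seven days before mortality was recorded.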

[3] = system: Yellow Fever Mosquito (Aedes aegypti, AEDSAE); conditions: for YFM rating: Table ABC / ABC-DP rating
In short: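 Compounds from 4000 ppm DMSO stocks were diluted in 90:10 water/acetone and dispensed into wells, then infested with about 1-day-old larvae in liver-powder water. Covered plates were held at room temperature for 3 days and each well was scored for mortality against a rating scale; six replicate plates per compound.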

[4] = Table ABC: Biological Results, species CL, read-out: CL
[5] = Table ABC: Biological Results, species BAW, read-out: BAW
[6] = Table ABC: Biological Results, species YFM
[7] = Cabbage Looper, Table ABC / ABC-DP rating, read-out: CL rating
[8] = Beet Armyworm, Table ABC / ABC-DP rating, read-out: BAW rating

C=C(F)c1ccc(NC(=O)c2cc(NC(=O)[C@H]3[C@H](c4cc(Cl)cc(Cl)c4)C3(Cl)Cl)ccc2Cl)c(F)c1 (relative stereo) [F1320, trans-2-Chloro-5-(2,2-dichloro-3-(3,5-dichlorophenyl)cyclopropane-1-carboxamido)-N-(2-fluoro-4-(1-fluorovinyl)phenyl)benzamide]
pest or weed control at 50 µg/cm2 [1, 4]: 50 to 100%
pest or weed control at 50 µg/cm2 [2, 5]: 50 to 100%
YFM [3, 6]: A (80–100)

Cc1c(Cl)cc(NC(=O)[C@H]2[C@H](c3ccc(F)c(Cl)c3)C2(Cl)Cl)cc1C(=O)NCC(F)(F)C(F)(F)F (relative stereo) [F2043, trans-3-Chloro-5-(2,2-dichloro-3-(3-chloro-4-fluorophenyl)cyclopropane-1-carboxamido)-2-methyl-N-(2,2,3,3,3-pentafluoropropyl)benzamide]
pest or weed control at 50 µg/cm2 [1, 7]: 50 to 100%
pest or weed control at 50 µg/cm2 [2, 8]: 50 to 100%
YFM rating ([3]; Yellow Fever Mosquito): A (80–100)

Cc1cc([C@@H]2[C@H](C(=O)Nc3ccc(Cl)c(C(=O)Nc4ccc(F)cc4F)c3)C2(Cl)Cl)cc(C(F)(F)F)c1F (relative stereo) [F1067, cis-2-Chloro-5-(2,2-dichloro-3-(4-fluoro-3-methyl-5-(trifluoromethyl)phenyl)cyclopropane-1-carboxamido)-N-(2,4-difluorophenyl)benzamide]
pest or weed control at 50 µg/cm2 [1, 4]: 50 to 100%
pest or weed control at 50 µg/cm2 [2, 5]: 50 to 100%
YFM [3, 6]: A (80–100)

CN(C(=O)c1cc(NC(=O)[C@H]2[C@H](c3ccc(Cl)c(Cl)c3)C2(Cl)Cl)ccc1Cl)c1ccc(F)c(NC(=O)C(F)(F)F)c1F [F1792, 2-Chloro-5-((1R,3R)-2,2-dichloro-3-(3,4-dichlorophenyl)cyclopropane-1-carboxamido)-N-(2,4-difluoro-3-(2,2,2-trifluoroacetamido)phenyl)-N-methylbenzamide]
pest or weed control at 50 µg/cm2 [1, 7]: 50 to 100%
pest or weed control at 50 µg/cm2 [2, 8]: 50 to 100%
YFM rating ([3]; Yellow Fever Mosquito): A (80–100)

Nc1c(F)ccc(NC(=O)c2cc(NC(=O)[C@H]3[C@H](c4ccc(F)c(C(F)(F)F)c4)C3(Cl)Cl)ccc2Cl)c1F [DP9, N-(3-amino-2,4-difluorophenyl)-2-chloro-5-((1R,3R)-2,2-dichloro-3-(4-fluoro-3-(trifluoromethyl)phenyl)cyclopropane-1-carboxamido)benzamide]
mortality at 50 µg/cm2 ([1]; 168 h, second instar larvae, 50 μg/cm^2 of test molecule on artificial diet, 25° C., five to seven days, average of eight wells, read-out: CL % Control (or Mortality) rating): 50 to 100%
pest or weed control at 50 µg/cm2 [1, 7]: 50 to 100%
mortality at 50 µg/cm2 ([2]; 168 h, second instar larvae, 50 μg/cm^2 of test molecule on artificial diet, 25° C., five to seven days, average of eight wells, read-out: BAW % Control (or Mortality) rating): 50 to 100%
pest or weed control at 50 µg/cm2 [2, 8]: 50 to 100%
YFM rating ([3]; Yellow Fever Mosquito): A (80–100)
YFM % Control (or Mortality) rating ([3]; about 1 day-old larvae, 4000 ppm master solution diluted with 90:10 water/acetone, 15 μL per well plus 220 μL larval mixture, 3 days, mortality): A (80–100)

C=Cc1cc(NC(=O)c2cc(NC(=O)[C@H]3[C@H](c4cc(Cl)cc(Cl)c4)C3(Cl)Cl)ccc2Cl)cc(F)c1F (relative stereo) [F1317, trans-2-Chloro-5-(2,2-dichloro-3-(3,5-dichlorophenyl)cyclopropane-1-carboxamido)-N-(3,4-difluoro-5-vinylphenyl)benzamide]
pest or weed control at 50 µg/cm2 [1, 4]: 50 to 100%
pest or weed control at 50 µg/cm2 [2, 5]: 50 to 100%
YFM [3, 6]: A (80–100)

CC(=O)Nc1ccc(NC(=O)c2cc(NC(=O)[C@H]3[C@H](c4ccc(F)c(Cl)c4)C3(Cl)Cl)cc(F)c2Cl)cc1 (relative stereo) [F1154, trans-N-(4-Acetamidophenyl)-2-chloro-5-(2,2-dichloro-3-(3-chloro-4-fluorophenyl)cyclopropane-1-carboxamido)-3-fluorobenzamide]
pest or weed control at 50 µg/cm2 [1, 4]: 50 to 100%
pest or weed control at 50 µg/cm2 [2, 5]: 50 to 100%
YFM [3, 6]: A (80–100)

CCOC(C)C(=O)N(CC)c1c(F)ccc(NC(=O)c2cc(NC(=O)[C@H]3[C@H](c4ccc(F)c(C(F)(F)F)c4)C3(Cl)Cl)ccc2Cl)c1F (stereo partly drawn) [F1827, 2-Chloro-5-((1R,3R)-2,2-dichloro-3-(4-fluoro-3-(trifluoromethyl)phenyl)cyclopropane-1-carboxamido)-N-(3-(2-ethoxy-N-ethylpropanamido)-2,4-difluorophenyl)benzamide]
pest or weed control at 50 µg/cm2 [1, 7]: 50 to 100%
pest or weed control at 50 µg/cm2 [2, 8]: 50 to 100%
YFM rating ([3]; Yellow Fever Mosquito): A (80–100)

O=C(CCC(F)(F)F)Nc1c(F)ccc(NC(=O)c2cc(NC(=O)[C@H]3[C@H](c4ccc(Cl)c(Cl)c4)C3(Cl)Cl)ccc2Cl)c1F [F1847, 2-Chloro-5-((1R,3R)-2,2-dichloro-3-(3,4-dichlorophenyl)cyclopropane-1-carboxamido)-N-(2,4-difluoro-3-(4,4,4-trifluorobutanamido)phenyl)benzamide]
pest or weed control at 50 µg/cm2 [1, 7]: 50 to 100%
pest or weed control at 50 µg/cm2 [2, 8]: 50 to 100%
YFM rating ([3]; Yellow Fever Mosquito): A (80–100)

Nc1c(F)ccc(NC(=O)c2cc(NC(=O)[C@H]3[C@H](c4cc(F)cc(C(F)(F)F)c4)C3(Cl)Cl)ccc2Cl)c1F [F1687, N-(3-Amino-2,4-difluorophenyl)-2-chloro-5-((1R,3R)-2,2-dichloro-3-(3-fluoro-5-(trifluoromethyl)phenyl)cyclopropane-1-carboxamido)benzamide]
pest or weed control at 50 µg/cm2 ([1]; Cabbage Looper, rating class, read-out: CL): 50 to 100%
pest or weed control at 50 µg/cm2 ([2]; Beet Armyworm, rating class, read-out: BAW): 50 to 100%
YFM ([3]; Yellow Fever Mosquito, rating class): A (80–100)

COc1c(F)cc(NC(=O)[C@H]2[C@H](c3ccc(F)c(Cl)c3)C2(Cl)Cl)cc1C(=O)Nc1ccc(F)cc1 (relative stereo) [F1218, trans-5-(2,2-Dichloro-3-(3-chloro-4-fluorophenyl)cyclopropane-1-carboxamido)-3-fluoro-N-(4-fluorophenyl)-2-methoxybenzamide]
pest or weed control at 50 µg/cm2 [1, 4]: 50 to 100%
pest or weed control at 50 µg/cm2 [2, 5]: 50 to 100%
YFM [3, 6]: A (80–100)

O=C(Nc1ccc(F)c(Br)c1)c1cc(NC(=O)[C@H]2[C@H](c3cc(Cl)cc(Cl)c3)C2(Cl)Cl)ccc1Cl (relative stereo) [F1304, trans-N-(3-bromo-4-fluorophenyl)-2-chloro-5-(2,2-dichloro-3-(3,5-dichlorophenyl)cyclopropane-1-carboxamido)benzamide]
pest or weed control at 50 µg/cm2 [1, 4]: 50 to 100%
pest or weed control at 50 µg/cm2 [2, 5]: 50 to 100%
YFM [3, 6]: A (80–100)

O=C(Nc1ccc(F)c(NC(=O)C(F)F)c1F)c1cc(NC(=O)[C@H]2[C@H](c3ccc(Cl)c(Cl)c3)C2(Cl)Cl)ccc1Cl [F1065, 2-Chloro-5-((1R,3R)-2,2-dichloro-3-(3,4-dichlorophenyl)cyclopropane-1-carboxamido)-N-(3-(2,2-difluoroacetamido)-2,4-difluorophenyl)benzamide]
pest or weed control at 50 µg/cm2 [1, 4]: 50 to 100%
pest or weed control at 50 µg/cm2 [2, 5]: 50 to 100%
YFM [3, 6]: A (80–100)

C=C(F)c1c(F)ccc(NC(=O)c2cc(NC(=O)[C@H]3[C@H](c4cc(Cl)cc(Cl)c4)C3(Cl)Cl)ccc2Cl)c1F (relative stereo) [F1321, trans-2-Chloro-5-(2,2-dichloro-3-(3,5-dichlorophenyl)cyclopropane-1-carboxamido)-N-(2,4-difluoro-3-(1-fluorovinyl)phenyl)benzamide]
pest or weed control at 50 µg/cm2 [1, 4]: 50 to 100%
pest or weed control at 50 µg/cm2 [2, 5]: 50 to 100%
YFM [3, 6]: A (80–100)

O=C(Nc1ccc(F)cc1F)c1cc(NC(=O)[C@H]2[C@H](c3cc(F)c(F)c(Br)c3)C2(Cl)Cl)ccc1Cl (relative stereo) [F1011, trans-5-(3-(3-Bromo-4,5-difluorophenyl)-2,2-dichlorocyclopropane-1-carboxamido)-2-chloro-N-(2,4-difluorophenyl)benzamide]
pest or weed control at 50 µg/cm2 [1, 4]: 50 to 100%
pest or weed control at 50 µg/cm2 [2, 5]: 50 to 100%
YFM [3, 6]: A (80–100)

Nc1ccc(NC(=O)c2cc(NC(=O)[C@H]3[C@H](c4ccc(F)c(Cl)c4)C3(Cl)Cl)ccc2Cl)cc1C(F)(F)F (relative stereo) [F1390, trans-N-(4-Amino-3-(trifluoromethyl)phenyl)-2-chloro-5-(2,2-dichloro-3-(3-chloro-4-fluorophenyl)cyclopropane-1-carboxamido)benzamide]
pest or weed control at 50 µg/cm2 [1, 4]: 50 to 100%
pest or weed control at 50 µg/cm2 [2, 5]: 50 to 100%
YFM [3, 6]: A (80–100)

O=C(Nc1ccc(F)c(NC(=O)C(F)(F)Cl)c1F)c1cc(NC(=O)[C@H]2[C@H](c3ccc(F)c(C(F)(F)F)c3)C2(Cl)Cl)ccc1Cl [F1170, 2-Chloro-N-(3-(2-chloro-2,2-difluoroacetamido)-2,4-difluorophenyl)-5-((1R,3R)-2,2-dichloro-3-(4-fluoro-3-(trifluoromethyl)phenyl)cyclopropane-1-carboxamido)benzamide]
pest or weed control at 50 µg/cm2 [1, 4]: 50 to 100%
pest or weed control at 50 µg/cm2 [2, 5]: 50 to 100%
YFM [3, 6]: A (80–100)

O=C(Nc1ccc(F)cc1F)c1cc(NC(=O)[C@H]2[C@H](c3ccc(F)c(Cl)c3F)C2(Cl)Cl)ccc1Cl (relative stereo) [F1034, trans-2-Chloro-5-(2,2-dichloro-3-(3-chloro-2,4-difluorophenyl)cyclopropane-1-carboxamido)-N-(2,4-difluorophenyl)benzamide]
pest or weed control at 50 µg/cm2 [1, 4]: 50 to 100%
pest or weed control at 50 µg/cm2 [2, 5]: 50 to 100%
YFM [3, 6]: A (80–100)
